In brackets after ≈: the same amount, converted by molar mass. Where two headings read alike, the source gives them in different places.
What was measured:
[1] = format: in vivo, mouse; conditions: for exposure on oral dosing: oral dosing (data not shown)
[2] = Mouse PK, intravenous dosing; format: in vivo; conditions: for CLb: total body clearance from whole blood; for half-life at 24 h: in vivo, iv, 2 mg/kg
non-replicating Mtb = format: cell-based, Mycobacterium tuberculosis
Microsomal clearance [3] = format: in vitro ADME; conditions: mouse microsomes
Human plasma protein = Human plasma protein binding; format: in vitro ADME; conditions: fraction unbound
Mtb H37RvMA = format: cell-based, Mycobacterium tuberculosis
Mtb Erdman strain = format: cell-based, Mycobacterium tuberculosis
Mtb H37Rv [4] = tested on: Mtb H37Rv
replicating Mtb = format: cell-based, Mycobacterium tuberculosis
Microsomal clearance [5] = format: in vitro ADME; conditions: human microsomes
intracellular Mtb = format: cell-based, Mycobacterium tuberculosis; conditions: read-out: IC90 against intracellular Mtb
[6] = aqueous pH 7.4 phosphate buffer simulating thermodynamic conditions
Microsomal clearance [7] = format: in vitro ADME; conditions: rat microsomes
LogD = format: physicochemical
Mtb H37Rv [8] = assay: microbe, parasite or virus in culture; conditions: Mycobacterium tuberculosis
physchem = conditions: pH 7
Mtb isolate S1125 = assay: microbe, parasite or virus in culture; format: cell-based; conditions: Mycobacterium tuberculosis

Question: Which “exposure on oral dosing” value [1] does the source give for `CS(=O)(=O)NC(=O)CCc1cc(-c2ccc(Br)cc2)nn1-c1ccc(Cl)cc1` [Compound 51, 3-(3-(4-bromophenyl)-1-(4-chlorophenyl)-1H-pyrazol-5-yl)-N-(methylsulfonyl)propanamide] here?
Answer: high exposure

Question: What about the CLb ([2]; intravenous 2 mg/kg) of the same molecule?
Answer: 3.13 mL/min/kg

Question: With “3-(1,3-bis(4-chlorophenyl)-1H-pyrazol-5-yl)-N-(methylsulfonyl)propanamide [Compound 8]” as the molecule, how does the “activity against non-replicating Mtb” value (non-replicating Mtb) read?
Answer: not active

Question: And the “Microsomal clearance % remaining, Mouse” value (Microsomal clearance [3])?
Answer: 87%

Question: And the “Human PPB fu” value (Human plasma protein)?
Answer: 0.023

Question: What about the MIC (Mtb H37RvMA) of the same molecule?
Answer: 4 µM

Question: And the “MIC against the Mtb Erdman strain” value (Mtb Erdman strain)?
Answer: 9.1 µM

Question: And the MIC (Mtb H37Rv [4])?
Answer: 4.7 µM

Question: What about the “log CFU reduction” value (replicating Mtb) of the same molecule?
Answer: 2–2.5 log CFU

Question: And the “Microsomal clearance % remaining, Human” value (Microsomal clearance [5])?
Answer: 98%

Question: What about the IC90 (intracellular Mtb) of the same molecule?
Answer: 11 µM

Question: And the solubility [6]?
Answer: 100 µM

Question: What about the “Microsomal clearance % remaining, Rat” value (Microsomal clearance [7]) of the same molecule?
Answer: > 99%

Question: What about the “exposure on oral dosing” value [1] of the same molecule?
Answer: high exposure

Question: What about the bioavailability ([1]; oral dosing, even at high doses) of the same molecule?
Answer: > 95%

Question: What about the “AUC0 – t” value ([2]; intravenous 2 mg/kg) of the same molecule?
Answer: 4883 µmol·min/L

Question: What about the Vd ([2]; intravenous 2 mg/kg) of the same molecule?
Answer: 1.2 L/kg

Question: What about the t½ terminal ([2]; intravenous 2 mg/kg) of the same molecule?
Answer: 3.6 h

Question: And the CLb ([2]; intravenous 2 mg/kg)?
Answer: 2.56 mL/min/kg

Question: And the LogD (LogD)?
Answer: 2.0

Question: Which MIC (Mtb H37Rv [8]) does the source give for `CS(=O)(=O)NC(=O)OCc1cn(-c2ccc(Cl)cc2)nc1-c1ccncc1` [Compound 45, (1-(4-chlorophenyl)-3-(pyridin-4-yl)-1H-pyrazol-4-yl)methyl (methylsulfonyl)carbamate] here?
Answer: 12.5 µM (≈ 5.09 µg/mL)

Question: And the CLb ([2]; intravenous 2 mg/kg)?
Answer: > 200 mL/min/kg

Question: For `CS(=O)(=O)NC(=O)CCc1cn(-c2ccc(Cl)cc2)nc1-c1ccncc1` [Compound 35, 3-(1-(4-chlorophenyl)-3-(pyridin-4-yl)-1H-pyrazol-4-yl)-N-(methylsulfonyl)propanamide], which MIC (Mtb H37Rv [8]) is on record?
Answer: 6.25 µM (≈ 2.53 µg/mL)

Question: Which CLb ([2]; intravenous 2 mg/kg) does the source give for `CS(=O)(=O)NC(=O)CCc1cn(-c2ccc(C(F)(F)F)nc2)nc1-c1ccc(Cl)cc1` [Compound 10, 3-(3-(4-chlorophenyl)-1-(6-(trifluoromethyl)pyridin-3-yl)-1H-pyrazol-4-yl)-N-(methylsulfonyl)propanamide] here?
Answer: 67.4 mL/min/kg

Question: For `CS(=O)(=O)NC(=O)CCc1cn(-c2ccc(Br)cc2)nc1C1CCN(C=O)CC1` [Compound 22, 3-(1-(4-bromophenyl)-3-(1-formylpiperidin-4-yl)-1H-pyrazol-4-yl)-N-(methylsulfonyl)propanamide], which MIC (Mtb H37Rv [8]) is on record?
Answer: ≥ 50 µM

Question: Which MIC (Mtb H37Rv [8]) does the source give for `CC(CC(=O)NS(C)(=O)=O)c1cn(-c2ccc(Cl)cc2)nc1-c1ccncc1` (stereo not shown) [Compound 37, 3-(1-(4-chlorophenyl)-3-(pyridin-4-yl)-1H-pyrazol-4-yl)-N-(methylsulfonyl)butanamide] here?
Answer: ≥ 50 µM

Question: With `CS(=O)(=O)NC(=O)CCc1nn(-c2ccc(Br)cc2)cc1-c1ccc(Cl)cc1` [Compound 53, 3-(1-(4-bromophenyl)-4-(4-chlorophenyl)-1H-pyrazol-3-yl)-N-(methylsulfonyl)propanamide] as the molecule, how does the MIC (Mtb H37Rv [8]) read?
Answer: ≥ 50 µM

Question: Which MIC (Mtb H37Rv [8]) does the source give for `CS(=O)(=O)NC(=O)C1CC1c1cn(-c2ccc(Br)cc2)nc1-c1ccncc1` (stereo not shown) [Compound 41, 2-(1-(4-bromophenyl)-3-(pyridin-4-yl)-1H-pyrazol-4-yl)-N-(methylsulfonyl)cyclopropane-1-carboxamide] here?
Answer: 12.5 to 19 µM (≈ 5.77 to 8.77 µg/mL)

Question: With `CS(=O)(=O)NC(=O)CCc1cn(-c2ccc(F)cc2)nc1-c1ccc(Cl)cc1` [Compound 3, 3-(3-(4-chlorophenyl)-1-(4-fluorophenyl)-1H-pyrazol-4-yl)-N-(methylsulfonyl)propanamide] as the molecule, how does the MIC (Mtb H37Rv [8]) read?
Answer: ≥ 50 µM

Question: For `CS(=O)(=O)NC(=O)NCc1cc(-c2ccc(Br)cc2)oc1-c1ccncc1` [Compound 58, N-(((5-(4-bromophenyl)-2-(pyridin-4-yl)furan-3-yl)methyl)carbamoyl)methanesulfonamide], which CLb ([2]; intravenous 2 mg/kg) is on record?
Answer: > 200 mL/min/kg

Question: With `CS(=O)(=O)NC(=O)CCc1cn(-c2ccc(Br)cc2)nc1-c1ccc([N+](=O)[O-])cc1` [Compound 23, 3-(1-(4-bromophenyl)-3-(4-nitrophenyl)-1H-pyrazol-4-yl)-N-(methylsulfonyl)propanamide] as the molecule, how does the MIC (Mtb H37Rv [8]) read?
Answer: 12.5 µM (≈ 6.17 µg/mL)

Question: For `CS(=O)(=O)NC(=O)/C=C/c1cn(-c2ccc(Cl)cc2)nc1-c1ccncc1` [Compound 38, (E)-3-(1-(4-chlorophenyl)-3-(pyridin-4-yl)-1H-pyrazol-4-yl)-N-(methylsulfonyl)acrylamide], which CLb ([2]; intravenous 2 mg/kg) is on record?
Answer: > 200 mL/min/kg

Question: With `O=c1[nH]c(CCc2cn(-c3ccc(Br)cc3)nc2-c2ccc(Cl)cc2)no1` [Compound 47, 3-(2-(1-(4-bromophenyl)-3-(4-chlorophenyl)-1H-pyrazol-4-yl)ethyl)-1,2,4-oxadiazol-5(4H)-one] as the molecule, how does the MIC (Mtb H37Rv [8]; 336 h) read?
Answer: ≥ 50 µM

Question: Which results are given for `CS(=O)(=O)NC(=O)C1CC1c1cn(-c2ccc(Cl)cc2)nc1-c1ccncc1` (stereo not shown) [Compound 40, 2-(1-(4-chlorophenyl)-3-(pyridin-4-yl)-1H-pyrazol-4-yl)-N-(methylsulfonyl)cyclopropane-1-carboxamide]?
Answer: MIC (Mtb H37Rv [8]): 12.5 to 19 µM (≈ 5.21 to 7.92 µg/mL); CLb ([2]; intravenous 2 mg/kg): > 200 mL/min/kg

Question: With `CCS(=O)(=O)NC(=O)CCc1cn(-c2ccc(Br)cc2)nc1-c1ccc(Cl)cc1` [Compound 33, 3-(1-(4-bromophenyl)-3-(4-chlorophenyl)-1H-pyrazol-4-yl)-N-(ethylsulfonyl) propanamide] as the molecule, how does the MIC (Mtb H37Rv [8]) read?
Answer: 12.5 µM (≈ 6.21 µg/mL)

Question: For `CS(=O)(=O)NC(=O)CCc1cn(-c2ccc(Br)cc2)nc1-c1ccc(Cl)cc1` [Compound 1, 3-(1-(4-bromophenyl)-3-(4-chlorophenyl)-1H-pyrazol-4-yl)-N-(methylsulfonyl)propanamide], which “activity against non-replicating Mtb” value (non-replicating Mtb) is on record?
Answer: not active

Question: And the “log CFU reduction” value (replicating Mtb)?
Answer: 2–2.5 log CFU

Question: What about the “exposure on oral dosing” value [1] of the same molecule?
Answer: high exposure

Question: And the half-life at 24 h [2]?
Answer: 2 h

Question: What about the CLb ([2]; intravenous 2 mg/kg) of the same molecule?
Answer: 1.18 mL/min/kg

Question: Which CLb ([2]; intravenous 2 mg/kg) does the source give for `CS(=O)(=O)NC(=O)CCc1cn(-c2ccc(Br)cc2)nc1-c1cccnc1` [Compound 17, 3-(1-(4-bromophenyl)-3-(pyridin-3-yl)-1H-pyrazol-4-yl)-N-(methylsulfonyl)propanamide] here?
Answer: 178 mL/min/kg

Question: With `CS(=O)(=O)NC(=O)CCc1cn(-c2ccc(Br)cc2)nc1-c1cccc(Cl)c1` [Compound 14, 3-(1-(4-bromophenyl)-3-(3-chlorophenyl)-1H-pyrazol-4-yl)-N-(methylsulfonyl)propanamide] as the molecule, how does the MIC (Mtb H37Rv [8]) read?
Answer: 2.3 µM (≈ 1.11 µg/mL)

Question: For `CS(=O)(=O)NC(=O)/C=C/c1cn(-c2ccc(Br)cc2)nc1-c1ccncc1` [Compound 39, (E)-3-(1-(4-bromophenyl)-3-(pyridin-4-yl)-1H-pyrazol-4-yl)-N-(methylsulfonyl)acrylamide], which solubility (physchem) is on record?
Answer: 185 µM (≈ 82.8 µg/mL)

Question: What about the MIC (Mtb H37Rv [8]) of the same molecule?
Answer: 1.2 to 4.7 µM (≈ 0.537 to 2.1 µg/mL)

Question: With `CS(=O)(=O)NC(=O)CCc1cn(-c2ccc(Br)cc2)nc1C1CCOCC1` [Compound 20, 3-(1-(4-bromophenyl)-3-(tetrahydro-2H-pyran-4-yl)-1H-pyrazol-4-yl)-N-(methylsulfonyl)propanamide] as the molecule, how does the CLb ([2]; intravenous 2 mg/kg) read?
Answer: 145 mL/min/kg

Question: Which results are given for `CS(=O)(=O)NC(=O)CCc1cn(-c2ccc(Br)cc2)nc1-c1ccncc1` [Compound 16, 3-(1-(4-bromophenyl)-3-(pyridin-4-yl)-1H-pyrazol-4-yl)-N-(methylsulfonyl)propanamide]?
Answer: activity against non-replicating Mtb (non-replicating Mtb): not active; MIC (Mtb isolate S1125): 15 to 30 µM (≈ 6.74 to 13.5 µg/mL); log CFU reduction (replicating Mtb): 2–2.5 log CFU; CLb ([2]; intravenous 2 mg/kg): > 200 mL/min/kg

Question: For `CS(=O)(=O)NC(=O)NCc1cn(-c2ccc(Cl)cc2)nc1-c1ccncc1` [Compound 43, N-(((1-(4-chlorophenyl)-3-(pyridin-4-yl)-1H-pyrazol-4-yl)methyl)carbamoyl)methanesulfonamide], which half-life at 24 h [2] is on record?
Answer: 2 h

Question: What about the CLb ([2]; intravenous 2 mg/kg) of the same molecule?
Answer: > 200 mL/min/kg

From paper PMC10500703 (Journal of medicinal chemistry, 2021)
